Laboratory results taken from patent publication US20020142457A1, “Cell having the potentiality of differentiation into cardiomyocytes” (priority 1999, published 2002).

Assays:
[1] = test system: mouse bone marrow-derived pluripotent stem cells (BMSC); assay: Differentiation of BMSC into myotubes, phase-contrast microscope; assay type: cell-based; conditions: 5-aza-C 3 μM in all dishes
Protocol: The mouse bone marrow-derived pluripotent stem cells (BMSC) having the potential to differentiate into cardiomyocytes were plated into 60-mm culture dishes and 60 mm fibronectin-coated dishes (Becton Dickinson) at a density of 2×10^4 cells/ml and cultured at 33° C. in a 5% CO2-incubator.
On the next day, 5-aza-C was added to each culture medium in a final concentration of 3 μM, followed by culturing with the following 3 different treatments, with addition of PDGF (culture dish A), both PDGF and retinoic acid (culture dish B) or without addition of any compound (culture dish C) (final concentration: PDGF, 10 ng/ml; retinoic acid, 10^−9 M).
On the next day, the medium was replaced with a fresh medium to remove 5-aza-C therefrom. Then, PDGF was added to the culture dish A until the final concentration of PDGF came to be 10 ng/ml, while PDGF and retinoic acid were added to the culture dish B until the final concentrations of PDGF and retinoic acid came to be 10 ng/ml and 10^−9 M, respectively. Two and four days thereafter, the medium was replaced and the PDGF or retinoic acid was further added.
As a result, about 30% of the cells in the culture dish containing 5-aza-C alone differentiated into myotubes, while about 40% of the cells in the culture dish containing PDGF and about 50% of the cells in the culture dish containing PDGF together with retinoic acid differentiated into myotubes. In the three groups of the fibronectin-coated dishes, the ratio of the cells differentiated into myotubes was about 10% higher than in the three groups of the culture dishes.
(§1) RNAs were collected from the myotubes thus obtained. And genes expressed in the myotubes were analyzed with quantitative PCR analysis using the synthetic oligonucleotides represented by SEQ ID NOS:71 to 78. As a result, PDGF or retinoic acid promoted the expression of MyoD and fTnI genes relating to a skeletal muscle but not cTnI or ANP specifically relating to a myocardium. Next, mouse bone marrow-derived pluripotent stem cells (BMSC) having the potential to differentiate into cardiomyocytes were inoculated in a 60-mm culture dish at a density of 2×10^4 cells/ml and cultured using an incubator at 33° C. under 5% of CO2.
On the next day, 5-aza-C was added to the liquid culture medium to give a final concentration of 3 μM. Furthermore, five treatments differing from each other were performed by adding FGF-8 to give a final concentration of 10 ng/ml (culture dish D); adding ET-1 to give a final concentration of 10 ng/ml (culture dish E); adding a midkine to give a final concentration of 10 ng/ml (Culture dish F); adding BMP4 to give a final concentration of 10 ng/ml (culture dish G); and adding no compound (culture dish H), followed by culturing.
On the next day, the medium was replaced by a fresh medium to eliminate 5-aza-C therefrom. Then, FGF-8 was added to the culture dish D to give a final concentration of 10 ng/ml; ET-1 was added to the culture dish E to give a final concentration of 10 ng/ml; the midkine was added to the culture dish F to give a final concentration of 10 ng/ml; and BMP4 was added to the culture dish G to give a final concentration of 10 ng/ml, followed by culturing. Two and four days thereafter, the medium was replaced and the FGF-8, ET-1, midkine or BMP4 was further added.
As a result, about 30% of the cells in the culture dish containing 5-aza-C alone differentiated into myotubes, while about 50% of the cells in the culture dishes containing FGF-8, ET-1, midkine or BMP4 differentiated into myotubes respectively.

[2] = test system: Nkx2.5/Csx and GATA4 co-forced expressing bone marrow cells (BMSC-Nkx2.5-GATA4); assay: Differentiation of BMSC-Nkx2.5-GATA4 with cytokines, phase-contrast microscope; assay type: cell-based, mouse; conditions: BMSC-Nkx2.5-GATA4, 5-aza-C 3 μM in all dishes; cytokine 10 ng/ml; four weeks
Protocol: The Nkx2.5/Csx and GATA4 co-forced expressing bone marrow cells (BMSC-Nkx2.5-GATA4) having the potential to differentiate into cardiomyocytes were plated into a 60-mm culture dish at a density of 2×10^4 cells/ml and cultured at 33° C. in a 5% CO2-incubator.
On the next day, 5-aza-C was added to the culture medium to give a final concentration of 3 μM. Furthermore, 5 treatments differing from each other were carried out by adding FGF-8 to give a final concentration of 10 ng/ml (culture dish I); adding ET-1 to give a final concentration of 10 ng/ml (culture dish J); adding midkine to give a final concentration of 10 ng/ml (culture dish K); adding BMP4 to give a final concentration of 10 ng/ml (culture dish L); and adding nothing (culture dish M), followed by culturing.
On the next day, the medium was replaced with a fresh medium to eliminate 5-aza-C. Then, FGF-8 was added to the culture dish I to give a final concentration of 10 ng/ml; ET-1 was added to the culture dish J to give a final concentration of 10 ng/ml; midkine was added to the culture dish K to give a final concentration of 10 ng/ml; and BMP4 was added to the culture dish L to give a final concentration of 10 ng/ml, followed by culturing. Two and four days thereafter, furthermore, the medium was replaced, and the FGF-8, ET-1, midkine or BMP4 was added.
As a result, about 30% of the cells in the culture dish containing 5-aza-C alone were converted into myotubes, while about 50% of the cells in the culture dishes containing FGF-8, ET-1, midkine or BMP4 differentiated into myotubes respectively. On the other hand, the addition of FGF-8, ET-1, midkine or BMP4 caused no increase in beating cardiomyocytes.

KUM2 cells = assay: Induction of spontaneously beating cardiomyocytes in KUM2 cells by 5-aza-C; assay type: cell-based, mouse; conditions: 5-aza-C 3 μM for 24 hours
Protocol: After culturing for about 4 months under the above conditions, immortalized cells were selected and diluted to establish 192 cell lines respectively derived from single cells (hereinafter referred to as bone marrow-derived first passage immortalized cell lines). To each of these clone-derived cell lines was added 5-aza-C at a final concentration of 3 μM, and the cells were cultured for 24 hours. After culturing for further 2 weeks in IMDM, clones that produced spontaneously beating cells were selected. […] One of three cell lines is KUM2. Hereinafter, unless otherwise indicated, the bone marrow cell KUM2 and mouse bone marrow-derived pluripotent stem cells (BMSC) described below were cultured in IMDM supplemented with 20% FCS, […] penicillin, 250 ng/ml streptomycin and […] amphotericin at 33° C. using a 5% CO2-incubator. When the KUM2 cells were exposed to 5-aza-C having a final concentration of 3 μM for 24 hours, nonspecific differentiation into spontaneously beating cardiomyocytes was induced. However, the frequency is very low (one or less per 10^7 cells).

[3] = test system: mouse bone marrow-derived pluripotent stem cells (BMSC); assay: Induction of differentiation of BMSC into cardiomyocytes using DMSO; assay type: cell-based; conditions: then 6 weeks
Protocol: According to the method described in Example 1, mouse bone marrow-derived pluripotent stem cells (BMSC) having the potential to differentiate into cardiomyocytes were obtained and cultured for 24 hours in the presence of 10 μM DMSO instead of 3 μM 5-aza-C. The medium was replaced with IMDM, followed by culturing for 6 weeks.

Bone marrow cells (BMSC) = assay: Induction of adipocytes from BMSC by PPAR-γ receptor agonists; assay type: cell-based, mouse
Protocol: Bone marrow cells (BMSC) having the potential to differentiate into cardiomyocytes can be induced to differentiate not only into cardiomyocytes but also into adipocytes. To control the differentiation into adipocytes, the conditions for the induction of the differentiation were examined. First, the expression of PPAR-y receptors was analyzed by the quantitative PCR method. […] Subsequently, PPAR-γ receptor agonists, pioglitazone and troglitazone, were added at various concentrations to bone marrow cells (BMSC) having the potential to differentiate into cardiomyocytes.

[4] = test system: mouse bone marrow-derived pluripotent stem cells (BMSC); assay: Quantitative PCR of genes expressed in myotubes from BMSC; assay type: cell-based; conditions: with 5-aza-C 3 μM; for expression of cTnI or ANP specifically relating to a myocardium: PDGF 10 ng/ml, retinoic acid 10^−9 M
Protocol: as §1
RNAs were collected from the myotubes thus obtained. And genes expressed in the myotubes were analyzed with quantitative PCR using the synthetic oligonucleotides represented by SEQ ID NOS:71 to 78. As a result, the FGF-8, ET-1, midkine and BMP4 each individually promoted the expression of cTnI and ANP gene which are myocardium-specific genes.

[5] = culture dishes, PDGF 10 ng/ml, retinoic acid 10^−9 M, four weeks

Molecule: Nc1ncn([C@@H]2O[C@H](CO)[C@@H](O)[C@H]2O)c(=O)n1 [5-aza-C, 5-azacytidine, reference compound]
- cells differentiated into myotubes ([1]; cytokine 10 ng/ml, four weeks after addition of 5-aza-C): about 30%
- cells differentiated into myotubes [1, 5]: about 30%
- cells differentiated into myotubes [2]: about 30%
- frequency of differentiation into spontaneously beating cardiomyocytes (KUM2 cells): one or less

Molecule: C[S+](C)[O-] [DMSO, dimethyl sulfoxide]
- differentiation into beating cardiomyocytes ([3]; 10 μM DMSO for 24 hours instead of 5-aza-C): induced to differentiate into beating cardiomyocytes
- expression of Nkx2.5/Csx and GATA4 genes in produced cells ([3]; 10 μM DMSO for 24 hours): expressed

Molecule: CCc1ccc(CCOc2ccc(CC3SC(=O)NC3=O)cc2)nc1 (stereo not drawn) [pioglitazone]
- BMSCs differentiated into adipocytes (Bone marrow cells (BMSC); 0.4 μM): about 50%
- BMSCs differentiated into adipocytes (Bone marrow cells (BMSC); 2 μM): ~100%

Molecule: CC1=C(/C=C/C(C)=C/C=C/C(C)=C/C(=O)O)C(C)(C)CCC1 [retinoic acid, all trans retinoic acid, reference compound]
- expression of MyoD and fTnI genes relating to a skeletal muscle [4]: promoted
- expression of cTnI or ANP specifically relating to a myocardium [4]: not

Molecule: Cc1c(C)c2c(c(C)c1O)CCC(C)(COc1ccc(CC3SC(=O)NC3=O)cc1)O2 (stereo not drawn) [troglitazone]
- BMSCs differentiated into adipocytes (Bone marrow cells (BMSC); 0.4 μM): about 50%
- BMSCs differentiated into adipocytes (Bone marrow cells (BMSC); 2 μM): ~100%

Molecule: PDGF
- cells differentiated into myotubes [1, 5]: about 40%
- expression of MyoD and fTnI genes relating to a skeletal muscle [4]: promoted
- expression of cTnI or ANP specifically relating to a myocardium [4]: not
